Test results: ChEMBL document CHEMBL1127136, “Vinylogous vs arylogous isocephems” (1993)
Values after ≈ are worked out from the molar mass of the structure shown.

system: Enterobacteriaceae; assay: Antibacterial activity against enterobacteriaceae was determined.; assay type: functional

| MIC | SMILES |
| --- | --- |
| 1.5 µg/mL (≈ 2.66 µM) | CO/N=C(/C(=O)N[C@@H]1C(=O)N2C(C(=O)O)=C(/C=C/C=C/CSc3nnnn3C)SC[C@H]12)c1csc(N)n1 |
| 5.9 µg/mL (≈ 10.4 µM) | CO/N=C(/C(=O)N[C@@H]1C(=O)N2C(C(=O)[O-])=C(/C=C/c3ccc(C[n+]4ccccc4)o3)SC[C@H]12)c1csc(N)n1 |
| 0.2 µg/mL (≈ 0.421 µM) | CO/N=C(/C(=O)N[C@@H]1C(=O)N2C(C(=O)[O-])=C(C[n+]3ccccc3)SC[C@H]12)c1csc(N)n1 |
| 3.8 µg/mL (≈ 6.52 µM) | CO/N=C(/C(=O)N[C@@H]1C(=O)N2C(C(=O)[O-])=C(/C=C/c3ccc(C[n+]4ccccc4)s3)SC[C@H]12)c1csc(N)n1 |
| 7.3 µg/mL (≈ 12.7 µM) | CO/N=C(/C(=O)N[C@@H]1C(=O)N2C(C(=O)[O-])=C(/C=C/c3ccccc3C[n+]3ccccc3)SC[C@H]12)c1csc(N)n1 |
| 8 µg/mL (≈ 13.9 µM) | CO/N=C(/C(=O)N[C@@H]1C(=O)N2C(C(=O)[O-])=C(/C=C/c3cccc(C[n+]4ccccc4)c3)SC[C@H]12)c1csc(N)n1 |
| 3.9 µg/mL (≈ 6.76 µM) | CO/N=C(/C(=O)N[C@@H]1C(=O)N2C(C(=O)[O-])=C(/C=C/c3ccc(C[n+]4ccccc4)cc3)SC[C@H]12)c1csc(N)n1 |
| 0.4 µg/mL (≈ 0.763 µM) | CO/N=C(/C(=O)N[C@@H]1C(=O)N2C(C(=O)[O-])=C(/C=C/C#CC[n+]3ccccc3)SC[C@H]12)c1csc(N)n1 |
| 0.12 µg/mL (≈ 0.226 µM) | CO/N=C(/C(=O)N[C@@H]1C(=O)N2C(C(=O)[O-])=C(C[n+]3cccc4ccsc43)SC[C@H]12)c1csc(N)n1 |
| 0.19 µg/mL (≈ 0.395 µM) | CO/N=C(/C(=O)N[C@@H]1C(=O)N2C(C(=O)[O-])=C(/C=C/C[N+](C)(C)C)SC[C@H]12)c1csc(N)n1 |
| 1 µg/mL (≈ 2.08 µM) | CO/N=C(/C(=O)N[C@@H]1C(=O)N2C(C(=O)[O-])=C(/C=C\C[N+](C)(C)C)SC[C@H]12)c1csc(N)n1 |
| 0.03 µg/mL (≈ 0.0539 µM) | CO/N=C(/C(=O)N[C@@H]1C(=O)N2C(C(=O)[O-])=C(/C=C/C[n+]3cccc4ccsc43)SC[C@H]12)c1csc(N)n1 |
| 0.28 µg/mL (≈ 0.616 µM) | CO/N=C(/C(=O)N[C@@H]1C(=O)N2C(C(=O)[O-])=C(C[N+](C)(C)C)SC[C@H]12)c1csc(N)n1 |
| 0.12 µg/mL | CO/N=C(/C(=O)N[C@@H]1C(=O)N2C(C(=O)O)=C(/C=C/C=C/C[n+]3cccc4ccsc43)SC[C@H]12)c1csc(N)n1.O=C([O-])C(F)(F)F |
| 0.3 µg/mL (≈ 0.599 µM) | CO/N=C(/C(=O)N[C@@H]1C(=O)N2C(C(=O)[O-])=C(/C=C/c3cc[n+](C)cc3)SC[C@H]12)c1csc(N)n1 |
| 0.14 µg/mL (≈ 0.26 µM) | CO/N=C(/C(=O)N[C@@H]1C(=O)N2C(C(=O)O)=C(/C=C/CSc3nnnn3C)SC[C@H]12)c1csc(N)n1 |
| 0.4 µg/mL (≈ 0.782 µM) | CO/N=C(/C(=O)N[C@@H]1C(=O)N2C(C(=O)O)=C(CSc3nnnn3C)SC[C@H]12)c1csc(N)n1 |

system: Staphylococcus sp.; assay: Antibacterial activity against staphylococci was determined.; assay type: functional

| MIC | SMILES |
| --- | --- |
| 5 µg/mL (≈ 8.87 µM) | CO/N=C(/C(=O)N[C@@H]1C(=O)N2C(C(=O)O)=C(/C=C/C=C/CSc3nnnn3C)SC[C@H]12)c1csc(N)n1 |
| 6.3 µg/mL (≈ 11.1 µM) | CO/N=C(/C(=O)N[C@@H]1C(=O)N2C(C(=O)[O-])=C(/C=C/c3ccc(C[n+]4ccccc4)o3)SC[C@H]12)c1csc(N)n1 |
| 2.5 µg/mL (≈ 5.27 µM) | CO/N=C(/C(=O)N[C@@H]1C(=O)N2C(C(=O)[O-])=C(C[n+]3ccccc3)SC[C@H]12)c1csc(N)n1 |
| 3.1 µg/mL (≈ 5.32 µM) | CO/N=C(/C(=O)N[C@@H]1C(=O)N2C(C(=O)[O-])=C(/C=C/c3ccc(C[n+]4ccccc4)s3)SC[C@H]12)c1csc(N)n1 |
| 0.95 µg/mL (≈ 1.65 µM) | CO/N=C(/C(=O)N[C@@H]1C(=O)N2C(C(=O)[O-])=C(/C=C/c3ccccc3C[n+]3ccccc3)SC[C@H]12)c1csc(N)n1 |
| 2.5 µg/mL (≈ 4.34 µM) | CO/N=C(/C(=O)N[C@@H]1C(=O)N2C(C(=O)[O-])=C(/C=C/c3cccc(C[n+]4ccccc4)c3)SC[C@H]12)c1csc(N)n1 |
| 6.3 µg/mL (≈ 10.9 µM) | CO/N=C(/C(=O)N[C@@H]1C(=O)N2C(C(=O)[O-])=C(/C=C/c3ccc(C[n+]4ccccc4)cc3)SC[C@H]12)c1csc(N)n1 |
| 5 µg/mL (≈ 9.53 µM) | CO/N=C(/C(=O)N[C@@H]1C(=O)N2C(C(=O)[O-])=C(/C=C/C#CC[n+]3ccccc3)SC[C@H]12)c1csc(N)n1 |
| 0.76 µg/mL (≈ 1.43 µM) | CO/N=C(/C(=O)N[C@@H]1C(=O)N2C(C(=O)[O-])=C(C[n+]3cccc4ccsc43)SC[C@H]12)c1csc(N)n1 |
| 1.2 µg/mL (≈ 2.5 µM) | CO/N=C(/C(=O)N[C@@H]1C(=O)N2C(C(=O)[O-])=C(/C=C/C[N+](C)(C)C)SC[C@H]12)c1csc(N)n1 |
| 10 µg/mL (≈ 20.8 µM) | CO/N=C(/C(=O)N[C@@H]1C(=O)N2C(C(=O)[O-])=C(/C=C\C[N+](C)(C)C)SC[C@H]12)c1csc(N)n1 |
| 0.12 µg/mL (≈ 0.216 µM) | CO/N=C(/C(=O)N[C@@H]1C(=O)N2C(C(=O)[O-])=C(/C=C/C[n+]3cccc4ccsc43)SC[C@H]12)c1csc(N)n1 |
| 10 µg/mL (≈ 22 µM) | CO/N=C(/C(=O)N[C@@H]1C(=O)N2C(C(=O)[O-])=C(C[N+](C)(C)C)SC[C@H]12)c1csc(N)n1 |
| 0.38 µg/mL | CO/N=C(/C(=O)N[C@@H]1C(=O)N2C(C(=O)O)=C(/C=C/C=C/C[n+]3cccc4ccsc43)SC[C@H]12)c1csc(N)n1.O=C([O-])C(F)(F)F |
| 0.8 µg/mL (≈ 1.6 µM) | CO/N=C(/C(=O)N[C@@H]1C(=O)N2C(C(=O)[O-])=C(/C=C/c3cc[n+](C)cc3)SC[C@H]12)c1csc(N)n1 |
| 2.5 µg/mL (≈ 4.65 µM) | CO/N=C(/C(=O)N[C@@H]1C(=O)N2C(C(=O)O)=C(/C=C/CSc3nnnn3C)SC[C@H]12)c1csc(N)n1 |
| 15.9 µg/mL (≈ 31.1 µM) | CO/N=C(/C(=O)N[C@@H]1C(=O)N2C(C(=O)O)=C(CSc3nnnn3C)SC[C@H]12)c1csc(N)n1 |
